“Also recorded” adds a separate entry of the source.
Legend:
[1] = system: muscle glycogen (vastus lateralis); assay: Muscle glycogen resynthesis after glycogen depleting exercise, double blinded crossover, vastus lateralis biopsies; assay type: in vivo, human
Description: In this example, the effect is examined of a 500 mg steviol glycosides supplementation together with post-exercise oral carbohydrate (1.5 g/kg/h), versus an isocaloric carbohydrate supplementation on muscle glycogen resynthesis, following glycogen depletive exercise. Fifteen trained male cyclists performed two cycling sessions of 120 min at 75-85% Vo2-max, with the post exercise supplementation of stevioside organized in a double blinded crossover study design. Over the course of a 4 h of recovery period, muscle biopsies were obtained from the vastus lateralis immediately and 240 minutes after exercise, to measure post-recovery glycogen concentration and rate of post-exercise glycogen synthesis. In order to measure plasma glucose, insulin and glucagon, blood samples were drawn before and immediately after exercise, and at every half hour during the four hour recovery period. Results A significant increase in total glycogen concentration was seen following the 4 hour of recovery in both trials (p<0.005). […] Plasma glucose and glucagon levels also show a reduction when stevioside was supplied.
In the present study, a double blinded crossover protocol was used to examine the effect of post exercise carbohydrate ingestion supplemented with or without stevioside supplementation on muscle glycogen resynthesis. The double blinded crossover protocol was chosen to ensure a satisfactory statistical power with the relative few subjects that were included in this study. After completing a preliminary anthropometric assessment incremental and VO2-max test, each subject completed two randomized experimental trials; separate by at least seven days.
After the preliminary testing, each subject underwent two experimental trials, with the experimental supplementation randomized using a randomizing software (Research randomizer) and blinded to both subject and researchers by supplementing the stevioside concealed in capsules. […] The two experimental trials were separated by at least seven days. The subjects were instructed to refrain from any intense exercise 24 hour before both the preliminary test and the two experimental trials. […]
As illustrated the table below, the subjects arrived fasting at 8:00 o'clock a.m. in the lab and completed a glycogen depletion ride consisting of 120 minutes cycling at 75%-80% of their maximal heart rate reserve, followed by a series of five 30 seconds sprint interval at an all-out intensity interspaced with a rest period of 60 seconds. Workload and target heart rate zone was calculated for the subjects, based on the results presented in table 1, performance characteristics of the subjects. […]

[2] = Plasma glucose, insulin and glucagon during the four hour recovery period; assay type: in vivo, human
Description: Before the subjects started the depletion ride, blood was drawn from a medial antecubital vein to establish baseline values for plasma glucose, plasma insulin and plasma glucagon concentrations. After completion of the depletion ride and 240 minutes later, a muscle biopsy was obtained from the vastus lateralis muscle by the use of a percutaneous needle biopsy technique, using the protocol described by Bergström (Bergström 1962). The biopsy sampling was performed by a trained physician with extensive experience in sterile technique. An area of anterolateral side of one thigh was disinfected with chlorhexidine, and local anesthetized with lidocaine (10 mg/ml) in the skin, subcutaneous tissue and muscle fascia. After the area was covered with a sterile hole-piece, a small incision in the skin and fascia of the leg was made with a scalpel and a tissue sample was taken with a Bergström biopsy needle with the aid of suction. The biopsy procedure was managed by Mikkel Overgaard, and assisted by Søren Lavrsen. Approx. 100 mg of muscle tissue was taken from the vastus lateralis muscle. The muscle tissue samples were weighted and immediately placed in liquid nitrogen, and then transferred to a freezer (−80° C.) for storage until analysis for determination of glycogen concentration would be made. At the same time a polyethylene catheter was placed subcutaneous into a medial antecubital vein from which blood samples were collected. 10 ml of blood were drawn for the analysis of plasma glucose and insulin, and 7.5 ml of blood was drawn for the analysis of plasma glucagon. After the first sample at 0 minutes, blood was drawn at 30, 60, 90, 120, 150, 180, 210 and 240 minutes after the subject has finished the glycogen depletion protocol. Blood samples were centrifuged before 2 ml of the plasma was pipetted into standard analyzing tubes and stored at −80° C. for later analysis.
Immediately after the muscle biopsy procedure and initial blood sampling, the subjects ingested either 500 mg of steviol glucosides, or placebo (500 mg of corn starch) Supplementation, together with 1.5 gr/body weight of liquid maltodextrine solution (Pure Power, Harre Denmark). The sequence of stevioside and placebo supplementation was randomized in a balanced order. At 60, 120 and 180 minutes after termination of the depletion ride, the subjects received another carbohydrate rich feeding (1.5 gr/body weight/hour of Carbohydrates/kg body weight/hour), in accordance with the guidelines recommended by (Ivy et al. 1988).
Blood samples were collected for the measurements for measurement of the plasma glucose, insulin and glucagon values before initiation of the glycogen depletion protocol and at 0, 30, 60, 90, 120, 150, 180, 210 and 240 minutes after the subject has finished the glycogen depletion protocol.
10 ml of blood were drawn for the analysis of plasma glucose and insulin, and 7.5 ml of blood was drawn for the analysis of plasma glucagon. All blood was drawn from the antecubital vein. For glucose and insulin the drawn blood was collected in lilthium heparinized tubes (Venosafe—plasma VF-109SHL, Terumo Europe N.V., Leuven, Belgium). For glucagon the drawn blood was collected in EDTA treated tubes (Venosafe). With all samples the tubes were turned over 10 times, to avoid coagulation, before they were centrifuged at 1500 G for 10 minutes at 5° C. using a Sigma 3-18 centrifuge (Sigma Laborzentrifugen GmbH, Osterode am Harz, Germany). 2 ml of the plasma was pipetted into standard analyzing tubes and stored at −80° C. for later analysis. After all testing sessions were finished; all blood samples were packed, according to regulations, in an icebox at […], and transported to the Diabetes laboratory 4, at Aarhus University Hospital, Tage-Hansens Gade (Aarhus, Denmark) for analysis of plasma glucose, insulin and glucagon concentration. […]

[3] = type 2 diabetic subjects, cited from earlier work
isolated mouse islets = details: effect faded at normal to low glucose; cited from earlier work
[4] = type II diabetic patients, cited from earlier work
[5] = lean and obese Zucker rats; 200 or 500 mg/kg by gavage; cited from earlier work
[6] = system: skeletal muscle glucose transport system; details: soleus and epitrochlearis muscles of lean and obese Zucker rats; dose-dependent; cited from earlier work
[7] = Wistar rats, 20 mg/kg orally daily for 5 days, cited from earlier work

## C=C1C[C@@]23CC[C@H]4[C@@](C)(CCC[C@@]4(C)C(=O)O[C@@H]4O[C@H](CO)[C@@H](O)[C@H](O)[C@H]4O)[C@@H]2CC[C@]1(O[C@@H]1O[C@H](CO)[C@@H](O)[C@H](O)[C@H]1O[C@@H]1O[C@H](CO)[C@@H](O)[C@H](O)[C@H]1O)C3 [stevioside, Stevioside]
[1]; 4 h recovery, 500 mg orally with carbohydrate
  increase of glycogen resynthesis rate compared to placebo: 35%
[1]; 4 h recovery, 500 mg steviol glycosides orally with carbohydrate 1.5 g/kg/h, mean±SE, placebo 27.96±2.6
  glycogen resynthesis rate (rate of glycogen repletion): 37.84 ± 3.72 mmol/kg/h
[1]; 240 minutes after completion of the depletion protocol, placebo 246.4±20
  muscle glycogen concentration: 281.5±29 mmol/kg/dw
[1]; four hour recovery period, in addition to carbohydrate, p<0.022
  effect on post-exercise muscle glycogen resynthesis: increase muscle glycogen resynthesis significantly
[2]; after third CHO feeding at 120 minutes, placebo at 150
  time of second plasma insulin peak concentration: 180 min
[2]; any times during the recovery period, p=0.95
  difference in plasma insulin concentration between stevioside and control (iAUC): no significant difference
[2]; four hour recovery period
  plasma glucagon concentration (area under the curve) compared to placebo: reduction
[2]; four hour recovery period, listed as stevia
  plasma glucagon concentration (area under the curve) compared to placebo: clearly reduced
[2]; four hour recovery period, not statistically significant
  plasma glucose response (iAUC) compared to placebo: reduction; also recorded: lower
[2]; four hour recovery period, placebo 55790±12660
  plasma insulin, mean area under the curve: 56720±11950 ng/ml*4 hours
[3]; 1 g stevioside with standard meal vs maize starch
  suppression of postprandial blood glucose level: 18%
[3]; 1 g stevioside with standard meal
  circulating insulin levels: tended to be increased
Isolated mouse islets
  insulin release: glucose-dependent insulin release
[4]; 1 g orally
  postprandial glucagon like peptide-1 level: significantly reduced
[4]; 1 g orally, not statistically significant
  insulin response: tended to stimulate insulin response
[4]; 1 g stevioside orally with standard meal
  reduction of post prandial blood glucose response compared to placebo: 18.5%
[5]
  fasting plasma glucose and insulin: did not significantly affect
[6]
  insulin action on skeletal muscle glucose transport system: improves the insulin action
[7]
  glucose levels before the glucose test compared to control group: no significant decrease
[7]; stevioside alone
  glucose levels under increased loading during the glucose test: conferred beneficial effects

Source: patent US9872871B2, “Compositions for use in restoring muscle glycogen and/or muscle mass” (Aarhus Universitet, priority 2013, dated 2018)
